System: lysine deficient rats
Experiment: Effect of a medicine on abnormal bowel movement of lysine deficient rats (carmine dye feces count)
Type: in vivo, rats (male Wistar)
Details: oral administration with carmine dye; rats fed low lysine diet 7 days, fasted one day; Dunnett's method
Source text: The low lysine diet (n=10) or lysine-containing diet (normal diet; n=10) was given to rats (Charles River Japan, Inc, male Wistar rats, 5W). The rats fed for 7 days were used. Each rat was fasted one day before the start of the experiments (on the 6th day after beginning the feeding of the experimental diet) and then a medicine and carmine dye were orally administered. The number of the carmine colorant-containing feces was cumulatively counted sequentially. The statistical analysis was conducted according to Dunnett's method.

## Cc1[nH]cnc1CN1CCc2c(c3ccccc3n2C)C1=O [Alosetron]
  acceleration of the excretion of carmine-containing feces: significantly control the acceleration of the excretion of the feces

— US20050076398A1, “Animal model of chronic stress diseases and method for producing the same” (Ajinomoto Co., Inc., priority 2002, published 2005)
